From the NIST ThermoML archive (doi:10.1021/acs.jced.8b00132)
“And” between values parts separate entries of the source, which are not always exact repeats. Identical values can stand only once.

Settings: Gas

O=C(C(F)(F)C(F)(F)F)C(F)(C(F)(F)F)C(F)(F)F [dodecafluoro-2-methylpentan-3-one]
Settings	thermal conductivity
472.83 K, 3291 kPa, transient hot wire	0.03561 W/m/K
472.83 K, 4063 kPa, transient hot wire	0.03659 W/m/K
472.84 K, 2711 kPa, transient hot wire	0.03262 W/m/K
472.85 K, 3605 kPa, transient hot wire	0.03577 W/m/K
472.86 K, 3292 kPa, transient hot wire	0.03541 W/m/K
472.86 K, 3605 kPa, transient hot wire	0.0358 W/m/K
472.87 K, 2265 kPa, transient hot wire	0.02848 W/m/K
472.87 K, 4820 kPa, transient hot wire	0.03777 W/m/K
472.88 K, 4820 kPa, transient hot wire	0.03795 W/m/K
472.91 K, 4063 kPa, transient hot wire	0.03666 W/m/K
472.92 K, 4063 kPa, transient hot wire	0.03656 W/m/K
472.93 K, 3605 kPa, transient hot wire	0.03577 W/m/K
472.94 K, 4821 kPa, transient hot wire	0.03795 W/m/K
472.95 K, 4821 kPa, transient hot wire	0.03782 W/m/K
472.96 K, 2265 kPa, transient hot wire	0.02876 W/m/K
472.96 K, 4064 kPa, transient hot wire	0.03659 W/m/K
472.97 K, 2265 kPa, transient hot wire	0.02862 W/m/K
472.98 K, 4064 kPa, transient hot wire	0.0367 W/m/K
472.99 K, 3605 kPa, transient hot wire	0.03603 W/m/K
472.99 K, 3606 kPa, transient hot wire	0.0358 W/m/K
472.99 K, 5939 kPa, transient hot wire	0.03924 W/m/K
473.01 K, 4823 kPa, transient hot wire	0.03784 W/m/K
473.03 K, 4823 kPa, transient hot wire	0.038 W/m/K
473.06 K, 1890 kPa, transient hot wire	0.02666 W/m/K
473.06 K, 2265 kPa, transient hot wire	0.02868 W/m/K
473.06 K, 5939 kPa, transient hot wire	0.03956 W/m/K
473.07 K, 605 kPa, hot wire	0.02596 W/m/K
473.08 K, 606 kPa, hot wire	0.02604 W/m/K
473.08 K, 1889 kPa, transient hot wire	0.02628 W/m/K
473.08 K, 2265 kPa, transient hot wire	0.02867 W/m/K
473.08 K, 5937 kPa, transient hot wire	0.03959 W/m/K
473.1 K, 4824 kPa, transient hot wire	0.03789 W/m/K and 0.03779 W/m/K
473.11 K, 430 kPa, hot wire	0.0254 W/m/K
473.13 K, 429 kPa, hot wire	0.02498 W/m/K
473.14 K, 204 kPa, hot wire	0.0245 W/m/K and 0.02427 W/m/K
473.14 K, 5937 kPa, transient hot wire	0.03959 W/m/K and 0.03958 W/m/K
473.15 K, 1888 kPa, transient hot wire	0.0266 W/m/K
473.16 K, 2265 kPa, transient hot wire	0.02905 W/m/K
473.17 K, 607 kPa, hot wire	0.02579 W/m/K
473.17 K, 2265 kPa, transient hot wire	0.0291 W/m/K
473.18 K, 607 kPa, hot wire	0.02602 W/m/K
473.19 K, 7819 kPa, transient hot wire	0.04147 W/m/K
473.19 K, 49267 kPa, transient hot wire	0.06278 W/m/K
473.21 K, 47 kPa, hot wire	0.02404 W/m/K
473.21 K, 427 kPa, hot wire	0.02512 W/m/K
473.21 K, 49264 kPa, transient hot wire	0.06294 W/m/K
473.22 K, 426 kPa, hot wire	0.02501 W/m/K
473.22 K, 5937 kPa, transient hot wire	0.03959 W/m/K
473.23 K, 47 kPa, hot wire	0.02385 W/m/K
473.24 K, 203 kPa, hot wire	0.02435 W/m/K and 0.02438 W/m/K
473.24 K, 5937 kPa, transient hot wire	0.03993 W/m/K
473.26 K, 49261 kPa, transient hot wire	0.06261 W/m/K
473.26 K, 49266 kPa, transient hot wire	0.06275 W/m/K
473.27 K, 607 kPa, hot wire	0.02598 W/m/K and 0.02584 W/m/K
473.27 K, 1888 kPa, transient hot wire	0.02674 W/m/K
473.27 K, 49222 kPa, transient hot wire	0.06278 W/m/K
473.27 K, 49223 kPa, transient hot wire	0.06286 W/m/K
473.28 K, 47 kPa, hot wire	0.02405 W/m/K
473.28 K, 1888 kPa, transient hot wire	0.02686 W/m/K
473.28 K, 7819 kPa, transient hot wire	0.0414 W/m/K
473.29 K, 423 kPa, hot wire	0.02534 W/m/K
473.29 K, 5935 kPa, transient hot wire	0.03933 W/m/K
473.29 K, 7822 kPa, transient hot wire	0.04164 W/m/K
473.3 K, 47 kPa, hot wire	0.02401 W/m/K
473.3 K, 425 kPa, hot wire	0.02526 W/m/K
473.31 K, 5936 kPa, transient hot wire	0.03955 W/m/K
473.33 K, 202 kPa, hot wire	0.02458 W/m/K
473.33 K, 7818 kPa, transient hot wire	0.04161 W/m/K
473.33 K, 33947 kPa, transient hot wire	0.05683 W/m/K
473.33 K, 49216 kPa, transient hot wire	0.06307 W/m/K
473.34 K, 203 kPa, hot wire	0.02431 W/m/K
473.34 K, 33948 kPa, transient hot wire	0.05717 W/m/K
473.35 K, 47 kPa, hot wire	0.02449 W/m/K
473.35 K, 49221 kPa, transient hot wire	0.06272 W/m/K
473.36 K, 47 kPa, hot wire	0.02437 W/m/K
473.36 K, 606 kPa, hot wire	0.02606 W/m/K
473.36 K, 7821 kPa, transient hot wire	0.04152 W/m/K
473.37 K, 607 kPa, hot wire	0.0258 W/m/K
473.38 K, 420 kPa, hot wire	0.02536 W/m/K
473.38 K, 1887 kPa, transient hot wire	0.02681 W/m/K
473.38 K, 1913 kPa, transient hot wire	0.02688 W/m/K
473.38 K, 49255 kPa, transient hot wire	0.06283 W/m/K
473.39 K, 419 kPa, hot wire	0.0252 W/m/K
473.39 K, 1474 kPa, transient hot wire	0.02551 W/m/K
